Columns and labels:
Assay type in all cases: functional
[1] = system: UACC-257; test: Growth inhibition of human UACC257 cells assessed as cell growth at 3X10'-7 M after 48 hrs by sulforhodamine B assay; settings: UACC-257, 48 h, read-out: Activity
[2] = system: HOP-92; test: Growth inhibition of human HOP92 cells assessed as cell growth at 3X10'-7 M after 48 hrs by sulforhodamine B assay; settings: HOP-92, 48 h, read-out: Activity
[3] = Growth inhibition of human Hs 578T cells assessed as cell growth at 3X10'-6 M after 48 hrs by sulforhodamine B assay; settings: read-out: Activity
[4] = system: OVCAR-4; test: Growth inhibition of human OVCAR4 cells assessed as cell growth at 3X10'-6 M after 48 hrs by sulforhodamine B assay; settings: OVCAR-4, 48 h, read-out: Activity
[5] = system: T47D; test: Growth inhibition of human T47D cells assessed as cell growth at 3X10'-8 M after 48 hrs by sulforhodamine B assay; settings: read-out: Activity
[6] = system: OVCAR-5; test: Growth inhibition of human OVCAR5 cells assessed as cell growth at 3X10'-7 M after 48 hrs by sulforhodamine B assay; settings: OVCAR-5, 48 h, read-out: Activity
[7] = system: SK-MEL-2; test: Growth inhibition of human SK-MEL-2 cells assessed as cell growth at 3X10'-7 M after 48 hrs by sulforhodamine B assay; settings: SK-MEL-2, 48 h, read-out: Activity
[8] = system: SR; test: Growth inhibition of human SR cells assessed as cell growth at 3X10'-7 M after 48 hrs by sulforhodamine B assay; settings: read-out: Activity
[9] = system: NCI-H322M; test: Growth inhibition of human NCI-H322M cells assessed as cell growth at 3X10'-6 M after 48 hrs by sulforhodamine B assay; settings: read-out: Activity
[10] = system: SK-MEL-2; test: Growth inhibition of human SK-MEL-2 cells assessed as cell growth at 3X10'-5 M after 48 hrs by sulforhodamine B assay; settings: SK-MEL-2, 48 h, read-out: Activity
[11] = system: SK-OV-3; test: Growth inhibition of human SKOV3 cells assessed as cell growth at 3X10'-8 M after 48 hrs by sulforhodamine B assay; settings: SK-OV-3, 48 h, read-out: Activity
[12] = system: HOP-92; test: Growth inhibition of human HOP92 cells assessed as cell growth at 3X10'-9 M after 48 hrs by sulforhodamine B assay; settings: HOP-92, 48 h, read-out: Activity
[13] = system: Malme-3M; test: Growth inhibition of human MALME-3M cells assessed as cell growth at 3X10'-6 M after 48 hrs by sulforhodamine B assay; settings: read-out: Activity
[14] = Growth inhibition of human NCI-ADR-RES cells assessed as cell growth at 3X10'-5 M after 48 hrs by sulforhodamine B assay; settings: read-out: Activity
[15] = system: MCF7; test: Growth inhibition of human MCF7 cells assessed as cell growth at 3X10'-5 M after 48 hrs by sulforhodamine B assay; settings: MCF7, 48 h, read-out: Activity
[16] = system: SNB-19; test: Growth inhibition of human SNB19 cells assessed as cell growth at 3X10'-6 M after 48 hrs by sulforhodamine B assay; settings: SNB-19, 48 h, read-out: Activity
[17] = system: 786-0; test: Growth inhibition of human 786-0 cells assessed as cell growth at 3X10'-8 M after 48 hrs by sulforhodamine B assay; settings: 786-0, 48 h, read-out: Activity
[18] = system: OVCAR-5; test: Growth inhibition of human OVCAR5 cells assessed as cell growth at 3X10'-6 M after 48 hrs by sulforhodamine B assay; settings: OVCAR-5, 48 h, read-out: Activity
[19] = system: Malme-3M; test: Growth inhibition of human MALME-3M cells assessed as cell growth at 3X10'-5 M after 48 hrs by sulforhodamine B assay; settings: read-out: Activity
[20] = system: HOP-92; test: Growth inhibition of human HOP92 cells assessed as cell growth at 3X10'-5 M after 48 hrs by sulforhodamine B assay; settings: HOP-92, 48 h, read-out: Activity
[21] = system: 786-0; test: Growth inhibition of human 786-0 cells assessed as cell growth at 3X10'-7 M after 48 hrs by sulforhodamine B assay; settings: 786-0, 48 h, read-out: Activity
[22] = system: HCT-116; test: Growth inhibition of human HCT116 cells assessed as cell growth at 3X10'-6 M after 48 hrs by sulforhodamine B assay; settings: HCT-116, 48 h, read-out: Activity
[23] = system: UO-31; test: Growth inhibition of human UO31 cells assessed as cell growth at 3X10'-8 M after 48 hrs by sulforhodamine B assay; settings: UO-31, 48 h, read-out: Activity
[24] = system: PC-3; test: Growth inhibition of human PC3 cells assessed as cell growth at 3X10'-5 M after 48 hrs by sulforhodamine B assay; settings: PC-3, 48 h, read-out: Activity
[25] = system: LOX IMVI; test: Growth inhibition of human LOXIMVI cells assessed as cell growth at 3X10'-9 M after 48 hrs by sulforhodamine B assay; settings: read-out: Activity
[26] = system: CAKI-1; test: Growth inhibition of human CAKI-1 cells assessed as cell growth at 3X10'-7 M after 48 hrs by sulforhodamine B assay; settings: CAKI-1, 48 h, read-out: Activity
[27] = system: SN12C; test: Growth inhibition of human SN12C cells assessed as cell growth at 3X10'-5 M after 48 hrs by sulforhodamine B assay; settings: read-out: Activity
[28] = system: LOX IMVI; test: Growth inhibition of human LOXIMVI cells assessed as cell growth at 3X10'-8 M after 48 hrs by sulforhodamine B assay; settings: read-out: Activity
[29] = system: SK-MEL-5; test: Growth inhibition of human SK-MEL-5 cells assessed as cell growth at 3X10'-8 M after 48 hrs by sulforhodamine B assay; settings: SK-MEL-5, 48 h, read-out: Activity
[30] = system: U-251; test: Growth inhibition of human U251 cells assessed as cell growth at 3X10'-5 M after 48 hrs by sulforhodamine B assay; settings: U-251, 48 h, read-out: Activity
[31] = system: Malme-3M; test: Growth inhibition of human MALME-3M cells assessed as cell growth at 3X10'-8 M after 48 hrs by sulforhodamine B assay; settings: read-out: Activity
[32] = system: SF-295; test: Growth inhibition of human SF295 cells assessed as cell growth at 3X10'-8 M after 48 hrs by sulforhodamine B assay; settings: SF-295, 48 h, read-out: Activity
[33] = system: MDA-MB-435; test: Growth inhibition of human MDA-MB-435 cells assessed as cell growth at 3X10'-9 M after 48 hrs by sulforhodamine B assay; settings: MDA-MB-435, 48 h, read-out: Activity
[34] = Growth inhibition of human HCC2998 cells assessed as cell growth at 3X10'-6 M after 48 hrs by sulforhodamine B assay; settings: HCC 2998, 48 h, read-out: Activity
[35] = system: COLO 205; test: Growth inhibition of human COLO205 cells assessed as cell growth at 3X10'-7 M after 48 hrs by sulforhodamine B assay; settings: COLO 205, 48 h, read-out: Activity
[36] = system: OVCAR-8; test: Growth inhibition of human OVCAR8 cells assessed as cell growth at 3X10'-6 M after 48 hrs by sulforhodamine B assay; settings: OVCAR-8, 48 h, read-out: Activity
[37] = system: SW-620; test: Growth inhibition of human SW620 cells assessed as cell growth at 3X10'-5 M after 48 hrs by sulforhodamine B assay; settings: SW-620, 48 h, read-out: Activity
[38] = Growth inhibition of human NCI-ADR-RES cells assessed as cell growth at 5X10'-6 M after 48 hrs by sulforhodamine B assay; settings: read-out: Activity

SMILES	growth at 0.3 µM [1] [%]	growth at 0.3 µM [2] [%]	growth at 3 µM [3] [%]	growth at 3 µM [4] [%]	growth at 0.03 µM [5] [%]	growth at 0.3 µM [6] [%]	growth at 0.3 µM [7] [%]	growth at 0.3 µM [8] [%]	growth at 3 µM [9] [%]	growth at 30 µM [10] [%]	growth at 0.03 µM [11] [%]	growth at 0.003 µM [12] [%]	growth at 3 µM [13] [%]	growth at 30 µM [14] [%]	growth at 30 µM [15] [%]	growth at 3 µM [16] [%]	growth at 0.03 µM [17] [%]	growth at 3 µM [18] [%]	growth at 30 µM [19] [%]	growth at 30 µM [20] [%]	further results
COc1cc(-c2nn(-c3cccc(NC(=O)c4ccc(Cl)c(C(F)(F)F)c4)c3)cc2-c2ccncc2)ccc1Cl	90	73	43	62	96	90	96	82	73	-10	100	94	20	-19	13	66	96	88	-6	-8	growth at 0.3 µM [21]: 99%; growth at 3 µM [22]: 44%; growth at 0.03 µM [23]: 80%; growth at 30 µM [24]: 11%; growth at 0.003 µM [25]: 92%; growth at 0.3 µM [26]: 85%; growth at 30 µM [27]: 35%; growth at 0.03 µM [28]: 91%; growth at 0.03 µM [29]: 97%; growth at 30 µM [30]: 15%; growth at 0.03 µM [31]: 78%; growth at 0.03 µM [32]: 94%; growth at 0.003 µM [33]: 95%; growth at 3 µM [34]: 63%; growth at 0.3 µM [35]: 99%; growth at 3 µM [36]: 50%; growth at 30 µM [37]: 24%
O=C(Nc1cccc(-n2cc(-c3ccncc3)c(-c3ccc(Cl)c(O)c3)n2)c1)Nc1ccc(Cl)c(C(F)(F)F)c1	93	55	9	17	103	88	108	81	9	-76	102	79	-32	-1	2	9	102	33	-70	-63	growth at 0.3 µM [21]: 96%; growth at 3 µM [22]: 4%; growth at 0.03 µM [23]: 95%; growth at 30 µM [24]: -19%; growth at 0.003 µM [25]: 100%; growth at 0.3 µM [26]: 87%; growth at 30 µM [27]: -6%; growth at 0.03 µM [28]: 99%; growth at 0.03 µM [29]: 94%; growth at 30 µM [30]: -80%; growth at 0.03 µM [31]: 94%; growth at 0.03 µM [32]: 92%; growth at 0.003 µM [33]: 97%; growth at 3 µM [34]: 7%; growth at 0.3 µM [35]: 101%; growth at 3 µM [36]: -16%; growth at 30 µM [37]: -43%
COc1cc(-c2nn(-c3cccc(NC(=O)c4cccc(C(F)(F)F)c4)c3)cc2-c2ccncc2)ccc1Cl																					growth at 5 µM [38]: -21%
COc1cc(-c2nn(-c3cccc(NC(=O)Nc4ccc(Cl)c(Cl)c4)c3)cc2-c2ccncc2)ccc1Cl																					growth at 5 µM [38]: -2%

— ChEMBL document CHEMBL2440076, “New triarylpyrazoles as broad-spectrum anticancer agents: design, synthesis, and biological evaluation” (Eur J Med Chem, 2013)
